Test results from patent US10583109B2, “Use of silver(I) complexes as anticancer agents” (University of Johannesburg, priority 2012, dated 2020).

Test system: SNO-oesophageal cancer cells
Assay: Flow cytometric analysis (Annexin-V FITC / PI) of apoptosis and/or necrosis in SNO-oesophageal cancer cells
Assay type: cell-based
Settings: 10 μM
Protocol: To determine if either apoptosis or necrosis occurred, the cells were double labelled with Annexin-V FITC and Propidium Iodide (PI) by means of an Annexin-V FITC assay kit (Serotec, UK). This was done according to manufacturer's instructions with a few adjustments. Briefly, the cells (±3×10^5 cells/ml) were washed twice with cold phosphate buffered saline (PBS), followed by the addition of 100 μl 1× binding buffer. Two and a half microliters of Annexin-V along with 5 μl PI were added in the dark and was incubated for 15 minutes at room temperature. After incubation, 400 μl 1× binding buffer was added and cells were analysed using the FACSAria flow cytometer (BD Biosciences, San Jose, Calif.) with FACSDiva software (BD Biosciences, San Jose, Calif.) 492 nm (excitation) and 520 nm for Annexin and 488 nm and 575 nm(emission) for PI.
The cell membrane contains a negatively charged phosphatidylserine (PS) on the inner leaflet and is exposed when apoptosis or necrosis takes place. Annexin-V interacts with PS in both apoptotic and necrotic cells, making these cellular deaths undistinguishable. This is overcome by using PI as an alternative label that interacts with the exposed DNA of necrotic cells only, leading to the fluorescent detection of both these labels. Pie charts (FIG. 9) were constructed for all the controls (including Ligand-1 to Ligand-5) and the different silver(I) thiocyanate phosphine complexes (1)-(5).
Pie charts representing the four different flow cytometric quadrants of Annexin-V and […] to determine the mode of cellular death induced in differentially treated SNO-oesophageal cells are represented in FIG. 9. An untreated control (A), apoptotic control (B) and necrotic control (C) were included. Cells were treated with 10 μM of the different ligands including the silver(I) thiocyanate phosphine complexes (1)-(5). An average percentage was calculated for all segments where the SEM is n=3 for all treatments except for 15% H2O2 (n=2). The four segments represent the following: White segment—negative for FITC and PI, Light grey segment—positive for FITC but negative for PI, Dark grey segment—positive for PI but negative for FITC and Black segment—positive for both FITC and PI. Cells undergoing early apoptosis are represented by the light grey segment, while those of late apoptosis and primary necrosis are represented by the black segment. Necrotic cells are represented by the dark grey segment and intact viable cells are shown by the white segment.
Approximately 3×10^5 cells were washed with ice cold phosphate buffered saline solution (PBS). The cells were double labeled using an Annexin-V FITC assay kit adjusting the protocol. A 1× binding buffer (100 μl) was used to fix the cells. Annexin-V (2.5 μl) and Propidium Iodide (PI—5 μl) labels were added respectively followed by a 15 minute incubation, at room temperature, in the dark. After the incubation period, 400 μl of the 1× binding buffer was added, where counting of the cellular events was made using an FACSAria flow cytometer (BD Biosciences, San Jose, Calif.) with FACSDiva software (BD Biosciences, San Jose, Calif.). This technique in particular identifies whether predicted apoptotic cell death (or necrosis) was induced by these complexes.
As observed in FIG. 14, dot blots represent the mode of cellular death induced in the SNO-oesophageal cancer cells after 24 hours of treatment. FIG. 14(a): 0.1% DMSO, FIG. 14(b): 100 μM CDDP, FIG. 14(c): 25% H2O2, FIG. 14(d-i): complexes (6)-(9). An average percentage was calculated for all quadrants where the SEM is n=2 for all treatments. The four quadrants represent the following: Quadrant Q3 is negative for FITC and PI, Quadrant Q4 is positive for FITC but negative for PI, Quadrant Q1 is positive for PI but negative for FITC and Quadrant Q2 is positive for both FITC and PI. Cells undergoing early apoptosis are more likely to be found in Quadrant Q4 while those of late apoptosis and primary necrosis will be found in Quadrant Q2. […]

Row | Compound | viable cells (flow cytometry) (24 hour treatment) | apoptotic cell death (flow cytometry, Q4 and Q2) (24 hours of treatment) [%] | cancer cells in which apoptosis was induced (flow cytometry) (24 hour treatment)
1 | C1#[N+][Ag]([P+](c2ccccc2)(c2ccccc2)c2ccccc2)([P+](c2ccccc2)(c2ccccc2)c2ccccc2)[S]C#[N+][Ag]([P+](c2ccccc2)(c2ccccc2)c2ccccc2)([P+](c2ccccc2)(c2ccccc2)c2ccccc2)[S]1 [complex (1), [AgSCN(PPh3)2]2] | ~57.47% | – | –
2 | c1ccc([P+](c2ccccc2)(c2ccccc2)[Ag+]([P+](c2ccccc2)(c2ccccc2)c2ccccc2)([P+](c2ccccc2)(c2ccccc2)c2ccccc2)[P+](c2ccccc2)(c2ccccc2)c2ccccc2)cc1 [complex (9), AgNO3(PPh3)4] | – | 15.3 | –
3 | [AgSCN{P(4-FC6H4)3}2]2 [complex (3)] | approximately 28% | – | more than half
